Here are results for eleven compounds from patent US7495013B2, “Chemical compounds” (AstraZeneca AB, priority 2004, dated 2009).

Structures can show the parent of a compound that is named as a salt.

In the experiment the target is T1, human H1 receptor (Homo sapiens, UniProt P35367).
T1 construct: purchased Euroscreen SA, Brussels, Belgium ES-390-M; host or cells: CHO-K1
T1 sequence (P35367 whole entry): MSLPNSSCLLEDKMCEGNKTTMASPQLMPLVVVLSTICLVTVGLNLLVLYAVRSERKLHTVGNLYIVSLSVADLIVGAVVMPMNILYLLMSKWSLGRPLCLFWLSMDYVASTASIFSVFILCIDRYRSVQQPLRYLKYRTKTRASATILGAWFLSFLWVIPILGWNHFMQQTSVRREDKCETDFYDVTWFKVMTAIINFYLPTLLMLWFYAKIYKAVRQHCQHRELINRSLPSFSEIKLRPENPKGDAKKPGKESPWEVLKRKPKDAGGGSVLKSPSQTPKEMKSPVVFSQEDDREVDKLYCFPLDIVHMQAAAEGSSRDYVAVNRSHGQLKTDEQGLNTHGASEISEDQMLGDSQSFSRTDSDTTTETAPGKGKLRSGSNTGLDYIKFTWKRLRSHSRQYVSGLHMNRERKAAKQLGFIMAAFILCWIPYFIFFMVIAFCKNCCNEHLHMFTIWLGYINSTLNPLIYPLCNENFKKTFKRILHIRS
As to the kind of experiment: Histamine H1 receptor binding, competition displacement of [3H]-pyrilamine. The note with it: competition displacement of 1 nM [3H]-pyrlamine; 2 μg membranes from recombinant CHO-K1 cells expressing the human H1 receptor; 1 hour at room temperature; read-out: H1 pKi (converted).
Regarding `Cc1c(Cl)ccc(OC2CCN(CC3CCN([C@@H](Cc4ccccc4)C(=O)O)CC3)CC2)c1Cl` [Example 37, (αS)4-[[4-(2,4Dichloro-3-methylphenoxy)-1-piperidinyl]methyl]-α-(phenylmethyl)-1-piperidineacetic acid], the Ki is 31.6 nM. In the case of `O=C(O)[C@H](Cc1cccnc1)N1CCC(CN2CCC(Oc3ccc(Cl)c(Cl)c3)CC2)CC1` [Example 42, (αS)-α-[4-[[4-(3,4-Dichlorophenoxy)-1-piperidinyl]methyl]-1-piperidinyl]-3-pyridinepropanoic acid], the Ki was 50.1 nM.

Consider `Cc1c(OC2CCN(CC3CCN([C@@H](Cc4ccccc4C#N)C(=O)O)CC3)CC2)ccc(Cl)c1Cl` [Example 56, (αS)-α-[(2-Cyanophenyl)methyl]-4-[[4-(3,4-dichloro-2-methylphenoxy)-1-piperidinyl]methyl]-1-piperidineacetic acid], for which the Ki is 12.6 nM. For `Cc1c(OC2CCN(CC3CCN([C@@H](Cc4cccc(C#N)c4)C(=O)O)CC3)CC2)ccc(Cl)c1Cl` [Example 57, (αS)-α-[(3-Cyanophenyl)methyl]-4-[[4-(3,4-dichloro-2-methylphenoxy)-1-piperidinyl]methyl]-1-piperidineacetic acid], the Ki was 20 nM. The same measure for `O=C(O)[C@H]([C@H](O)c1ccccc1)N1CCC(CN2CCC(Oc3ccc(Cl)c(Cl)c3)CC2)CC1` [Example 58, (αS)-4-[[4-(3,4-Dichlorophenoxy)-1-piperidinyl]methyl]-α-[(R)-hydroxyphenylmethyl]-1-piperidineacetic acid]: 126 nM. The same measure for `C[C@@H](c1ccccc1)[C@@H](C(=O)O)N1CCC(CN2CCC(Oc3ccc(Cl)c(Cl)c3)CC2)CC1` [Example 59, (αS)-4-[[4-(3,4-Dichlorophenoxy)-1-piperidinyl]methyl]-α-[(1S)-1-phenylethyl]-1-piperidineacetic acid]: 63.1 nM; for `O=C(O)[C@H](CCc1ccccc1)N1CCC(CN2CCC(Oc3ccc(Cl)c(Cl)c3)CC2)CC1` [Example 66, (αS)-4-[[4-(3,4-Dichlorophenoxy)-1-piperidinyl]methyl]-α-(2-phenylethyl)-1-piperidineacetic acid]: 63.1 nM. The same measure for `Cc1c(Cl)ccc(OC2CCN(CC3CCN([C@@H](Cc4ccccc4)C(=O)O)CC3)CC2)c1Cl` [Example 71, (αS)-4-[[4-(2,4-Dichloro-3-methylphenoxy-1-piperidinyl]methyl]-α-(phenylmethyl)-1-piperidineacetic acid, dihydrochloride salt]: 158 nM; for `O=C(O)[C@H](CCc1ccccc1)N1CCC(CN2CCC(Oc3ccc(Cl)c(Cl)c3)CC2)CC1` [Example 78, (αS)-4-[[4-(3,4-Dichlorophenoxy)-1-piperidinyl]methyl]-α-(2-phenylethyl)-1-piperidineacetic acid dihydrochloride]: 126 nM; for `O=C(O)[C@H](Cc1cccs1)N1CCC(CN2CCC(Oc3ccc(Cl)c(Cl)c3)CC2)CC1` [Example 80, (αS)-4-[[4-(3,4Dichlorophenoxy)-1-piperidinyl]methyl]-α-(2-thienylmethyl)-1-piperidineacetic acid]: 251 nM. On to `Cn1cncc1C[C@@H](C(=O)O)N1CCC(CN2CCC(Oc3ccc(Cl)c(Cl)c3)CC2)CC1` [Example 81, (αS)-4-[[4-(3,4-Dichlorophenoxy)-1-piperidinyl]methyl]-α-[(1-methyl-1H-imidazol-5-yl)methyl]-1-piperidineacetic acid], for which the Ki was 398 nM.
